In one assay the test system is ZDF rats. Put plainly: Graded glucose infusion, renal threshold for glucose excretion in ZDF rats. The assay is classed as in vivo, rat. As to conditions: 1 mg/kg. The source says:
(§1) Four rodent models were used in these experiments: (1) male C57BL/6J mice fed with a high-fat diet (D-12492 with 60 kcal% fat, Research Diets, Inc, New Jersey, USA) (diet-induced obese, insulin resistantmice [DIO]); (2) male C57BL/ksj-db/db hyperglycemic mice; (3) male Zucker fatty (ZF) obese, insulin resistant rats; and (4) male ZDF obese, hyperglycemic rats. All animals were housed according to standard procedures following a protocol approved by the IACUC in Drug Discovery at Johnson & Johnson Pharmaceutical Research & Development, LLC.
Two separate graded glucose infusion (GGI) studies were performed to characterize renal glucose handling in both untreated and treated ZDF rats. […] The RTG was determined as described below.
The relationship between UGE and BG is commonly described as a threshold relationship in which there is little UGE when BG<RTG and UGE increases with filtered glucose load when BG>RTG, where the filtered glucose load is equal to the BG concentration multiplied by the glomerular filtration rate (GFR). […] (1) Values of RTG were determined using nonlinear regression (nlinfit in Matlab version 7.10) with Equation 1 and the measured BG and UGE values.

The target of the next assay is Human SGLT2 (Homo sapiens, UniProt P31639). In words: cell-based. As for the experimental part: (§2) Sodium-dependent Glucose Uptake in Chinese Hamster Ovary (CHO) Cells Expressing SGLT1 and SGLT2 Co-transporters Parental CHO-K (CHOK) cells (commonly used mammalian cells for gene overexpression studies) expressing human or mouse SGLT1 and SGLT2 were utilized in this study. Cells were seeded into 96-well plates. Cells were then washed one time with 0.15 ml assay buffer (137 mM NaCl, 5 mM KCl, 1 mM CaCl2, 1 mM MgCl2, 50 mM HEPES, pH 7.4) at 37°C. […] Then, 5 µl of 6 mM alpha-methyl-D-glucopyranoside (AMG, a selective SGLT1/2 substrate)/^14C-AMG (0.07 µCi) was added to the cells and incubated at 37°C for 2 hours. Next, the cells were washed 3 times with 0.15 ml ice-cold phosphate-buffered saline (PBS). After the final wash was aspirated, 50 µl of microscint 20 (Packard, Meriden, Connecticut, USA) was added. The plate was counted by TopCount (Packard, Meriden, Connecticut, USA).
(§3) Statistical analysis was performed using the program Prism (Graphpad, Monrovia, California, USA). Differences between groups were evaluated using 1-way […] with Dunnett's multiple comparison test or student's t-test (unpaired), as appropriate. Probabilities less than 5% (P<0.05) were considered to be statistically significant. […] All data are presented as mean ± standard error.

A further assay deals with Mouse SGLT2 (Mus musculus, UniProt Q923I7). Put plainly: cell-based. The protocol:
as §2, §3

For the next assay, the system named is DIO mice. Put plainly: 4-week treatment of DIO mice (body weight, UGE, calorimetry). Conditions: DIO mouse, 30 mg/kg, 4 weeks. The assay is classed as in vivo.
Description: as §1
Body weight, food intake, and BG levels were monitored weekly. UGE and indirect calorimetry were conducted in the fourth week of treatment during the compound treatment. […] Body weight, food intake, and BG were measured weekly during the 19-day treatment period. UGE, body fat, and indirect calorimetric studies were conducted at the end of this study.

Experimental findings from article PMC3280264 (PLoS ONE, 2012) are described below.

For orientation: IC50 means the concentration that inhibits the measured activity by half.

Marks after values point to notes of the source that are not given here.

Human SGLT2, sequence (P31639 whole entry): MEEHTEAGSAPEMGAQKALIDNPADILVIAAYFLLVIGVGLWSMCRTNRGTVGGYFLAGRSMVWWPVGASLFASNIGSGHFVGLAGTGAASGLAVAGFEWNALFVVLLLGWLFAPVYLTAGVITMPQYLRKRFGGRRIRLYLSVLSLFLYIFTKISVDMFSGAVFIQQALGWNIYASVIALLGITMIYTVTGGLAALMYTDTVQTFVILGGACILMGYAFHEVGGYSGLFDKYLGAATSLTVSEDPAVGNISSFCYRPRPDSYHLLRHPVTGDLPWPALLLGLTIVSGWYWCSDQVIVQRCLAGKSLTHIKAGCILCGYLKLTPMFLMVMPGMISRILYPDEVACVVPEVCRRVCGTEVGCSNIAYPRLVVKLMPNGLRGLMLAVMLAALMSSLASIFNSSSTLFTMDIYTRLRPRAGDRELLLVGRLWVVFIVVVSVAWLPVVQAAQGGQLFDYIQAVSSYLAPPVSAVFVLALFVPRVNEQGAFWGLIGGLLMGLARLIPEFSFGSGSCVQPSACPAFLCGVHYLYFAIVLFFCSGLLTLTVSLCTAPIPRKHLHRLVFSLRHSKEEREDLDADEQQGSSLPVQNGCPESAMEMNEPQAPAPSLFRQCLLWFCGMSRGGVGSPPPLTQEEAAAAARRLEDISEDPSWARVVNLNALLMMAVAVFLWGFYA
Mouse SGLT2, sequence (Q923I7 whole entry): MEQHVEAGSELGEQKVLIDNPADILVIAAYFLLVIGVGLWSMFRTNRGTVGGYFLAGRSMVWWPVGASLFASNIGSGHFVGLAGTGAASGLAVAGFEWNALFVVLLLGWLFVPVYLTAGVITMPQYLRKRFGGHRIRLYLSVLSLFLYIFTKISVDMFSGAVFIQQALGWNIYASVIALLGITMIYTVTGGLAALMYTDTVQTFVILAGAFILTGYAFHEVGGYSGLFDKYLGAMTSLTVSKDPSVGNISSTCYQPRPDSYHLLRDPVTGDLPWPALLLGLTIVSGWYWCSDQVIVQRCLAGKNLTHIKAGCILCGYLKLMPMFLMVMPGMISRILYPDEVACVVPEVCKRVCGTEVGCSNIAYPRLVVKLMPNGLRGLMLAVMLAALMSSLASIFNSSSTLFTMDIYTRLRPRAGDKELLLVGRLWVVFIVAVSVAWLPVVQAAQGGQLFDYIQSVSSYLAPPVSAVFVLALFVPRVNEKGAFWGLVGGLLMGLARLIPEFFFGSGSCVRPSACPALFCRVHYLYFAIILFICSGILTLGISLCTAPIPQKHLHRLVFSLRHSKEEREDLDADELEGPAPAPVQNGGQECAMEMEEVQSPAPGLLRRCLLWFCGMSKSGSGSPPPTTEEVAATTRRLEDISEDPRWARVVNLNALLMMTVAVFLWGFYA

For `Cc1ccc([C@@H]2O[C@H](CO)[C@@H](O)[C@H](O)[C@H]2O)cc1Cc1ccc(-c2ccc(F)cc2)s1` [canagliflozin, Canagliflozin], the “BG at which negligible UGE occurred” value in the assay with ZDF rats (insulin + GGI study) was under 90 mg/dL. Also, the “renal threshold for glucose excretion (RTG)” value with ZDF rats (untreated 415±12 mg/dl) is 94 ± 10 mg/dL. Moreover, the IC50 against Human SGLT2 was 4.4 ± 1.2 nM; on Mouse SGLT2 it was 2 nM. The RER in the assay on DIO mice (vehicle 0.79±0.01) is on record as 0.77±0.01 ^b. Besides, in the assay on DIO mice (vehicle 2.4±0.6), the UGE is 26.1±5.2 ^b mg/4 h. The Body weight with DIO mice (vehicle 53.2±0.6) is given as 49.6±1.0 ^b g. In the assay on DIO mice (vehicle 199±16), the “Fed BG” value is given as 105±13 ^b mg/dl. In the assay with DIO mice (vehicle 2364±29), the “Oxygen consumption (VO2)” value worked out at 40.32 ± 1.82 mL/min/kg.
